Measured values taken from patent publication US9198879B2, “Pharmacologically optimized multimodal drug delivery system for nordihydroguiaretic acid (NDGA)” (Napo Pharmaceuticals, Inc., priority 2011, dated 2015).
“Also recorded” adds a separate entry of the source.

Tests used:
Db/db mice = assay: Glucose lowering in db/db mice; type: in vivo, mouse; settings: db/db mice with diabetes, given orally
Excerpt: (§1) In this study, the following animal models where used: • Db/db mice: homozygous mice are a model of obesity, diabetes and dyslipedemia where their leptin receptor activity is deficient. • Ob/ob mice: obese mice with diabetes. • Db/lean mice: heterozygous mice that are not diabetic. • Fat/STZ rats: non-genetically diabetic overweight rats that are fed diets enriched in fat and made hyperglycemic by chemically removing their pancreatic function to reduce insulin production by treating them with streptozotocin (STZ). • Fructose/STZ rats: non-diabetic rats that are fed diets enriched in fructose and made hyperglycemic by treating them with STZ. • ZDF rats: obese and hyperglycemic rats with other metabolic disorders.
(§2) Baseline glucose and triglyceride concentrations, where appropriate, were measured for both diabetic and normal animals.

Fructose/STZ rats = assay: Triglyceride and FFA lowering in Fructose/STZ rats; type: in vivo, rat; settings: fructose-fed/STZ rats
Excerpt: as §1
These reductions in free fatty acid concentration could result from either decreased production (by reduced lipolysis) or increased removal of free fatty acids from the circulation by liver, fat or muscle.

[1] = system: fructose-fed and fat-fed/STZ rat models; assay: NDGA versus metformin at equimolar doses in fructose-fed and fat-fed/STZ rat models; type: in vivo
Excerpt: NDGA has been studied by administering it orally to animals to determine its effectiveness for lowering glucose, free fatty acid (FFA) and triglyceride levels. […] See Example 2 below. […] There was no significant baseline difference between the NDGA and metformin groups.
In one such study, the effects of NDGA and metformin as a control drug for treatment of diabetes were studied in a non-diabetic model of hypertriglyceridemia (fructose-fed) and a non-genetic, (i.e., streptozotocin (STZ) treated) model of diabetes. […] See FIGS. 2 (glucose) and 3 (triglycerides).

[2] = system: high fat diet-fed/STZ rat model; assay: Liver and muscle glycogen content after NDGA treatment; type: in vivo
Procedure: In the high fat diet-fed/STZ rat model, liver and muscle glycogen content was measured after treatment with NDGA versus vehicle. Treatment with NDGA had no effect on muscle glycogen levels when compared to control.

Fat/STZ rats = assay: Fat/STZ rat model, oral NDGA in CMC, PEG or Gelucire vehicles: glucose, triglycerides, FFA; type: in vivo; settings: for glucose: versus 366+/−32; for glucose levels: 250 mg/kg twice daily
Procedure: (§3) In these studies, a variety of rodent models were used to evaluate the glucose-lowering properties and its effects on lipids, such as lowering of triglycerides. NDGA was administered orally to animals over a wide range of doses (10 to 350) mg/kg.
In this experiment, NDGA was dissolved in the following: • CMC: 0.25% carboxymethylcellulose • Gelucire: “Gelucire 44/14 (Gatefosse, Wildwood, N.J.; a well-defined mixture of mono-, di-, and tri-glycerides and mono- and di-fatty acid esters of polyethylene glycol) • PEG: 85% polyethylenene glycol, 10% tween and 5% propanediol
as §1, §2

rodent models = assay: Oral NDGA in a variety of rodent models (model not given); type: in vivo
Procedure: as §3
NDGA was effective at lowering glucose when formulated in either aqueous or lipophilic vehicles to varying degrees of efficacy.

ZDF rats = assay: Glucose and triglyceride lowering in ZDF rats; type: in vivo, rat
Excerpt: as §1, §2

fat/STZ rat [3] = assay: Basal hepatic glucose production by intravenous infusion of radiolabeled glucose; type: in vivo; settings: no insulin infused, p<0.05
Procedure: (§4) Studies were also conducted to determine the mechanism by which NDGA lowers glucose. To do so, NDGA was administered to determine the effects of NDGA on insulin-stimulated glucose disposition and on basal hepatic glucose production using the high fat diet fed/streptozotocin (STZ) rat model of NIDDM. Whole-body insulin-stimulated glucose disposition was measured using a constant intravenous glucose/insulin infusion, in which the steady-state plasma insulin concentration (SSPI) is held constant and the steady-state plasma glucose concentration (SSPG) is a measure of net glucose clearance. […] In these same studies basal hepatic glucose production was measured using an intravenous infusion of radiolabeled glucose (no insulin was infused).
(§5) Studies were conducted to determine the effects of NDGA (masoprocol) on insulin-stimulated glucose disposition and on basal hepatic glucose production using the fat/STZ rat. Whole-body insulin-stimulated glucose disposition was measured using a constant intravenous glucose/insulin infusion, in which the steady-state plasma insulin concentration (SSPI) is held constant and the steady-state plasma glucose concentration (SSPG) is a measure of net glucose clearance.

rat adipocytes = settings: cited from earlier work
Ob/ob mice = assay: Glucose lowering in ob/ob mice; type: in vivo, mouse; settings: ob/ob mice with diabetes, given orally
Excerpt: as §1, §2

[4] = cited from earlier work
fat/STZ rat [5] = assay: Whole-body insulin-stimulated glucose disposition (SSPG) with constant intravenous glucose/insulin infusion; type: in vivo; settings: steady-state plasma insulin held constant
Procedure: as §4, §5

[6] = equimolar doses of NDGA or metformin

With CC(Cc1ccc(O)c(O)c1)C(C)Cc1ccc(O)c(O)c1 (stereo not shown) [NDGA, nordihydroguaiaretic acid] the glucose lowering (Db/db mice) was “significantly lowers glucose”, the “free fatty acid (FFA) concentrations” value (Fructose/STZ rats) was “decreases free fatty acid (FFA) concentrations” and the plasma triglyceride lowering (Fructose/STZ rats) was “significantly and dramatically lowered plasma triglycerides”. The “change in insulin concentrations” value [1, 6] was “without changing insulin concentration; also recorded: without any change in insulin concentrations”, the “glucose lowering in comparison to the vehicle control” value [1, 6] was “significantly lowered glucose” and the “triglyceride lowering in comparison to the vehicle control” value [1, 6] was “significantly lowered triglycerides”. For the same molecule, the “lowering of triglyceride concentrations in comparison to vehicle” value ([1]; equimolar dosing with metformin) was 80%, the “effect on muscle glycogen levels” value ([2]; compared to control) was “no effect” and the “reduction of liver glycogen concentrations” value ([2]; versus vehicle) was “approximately 75%”. It also gave a triglyceride levels (Fat/STZ rats; Fat/STZ rat, 40 mg/Kg once daily (QD), CMC delivery vehicle, 327 +/−25 without NDGA, no significant lowering) of 270 ± 26 mg/dL, a triglyceride levels (Fat/STZ rats; Fat/STZ rat, 40 mg/kg QD, Gelucire delivery vehicle, 674+/−84 without NDGA, significant lowering) of 312 ± 38 mg/dL and a glucose (Fat/STZ rats; Fat/STZ rat, 40 mg/kg QD, Gelucire vehicle) of 299 ± 25 mg/dL. For the same molecule, the glucose (Fat/STZ rats; Fat/STZ rat, 250 mg/kg QD, Gelucire vehicle) was 325 ± 26 mg/dL, the triglyceride (Fat/STZ rats; Fat/STZ rat, 250 mg/kg QD, Gelucire vehicle, versus 674+/−84) was 249 ± 42 mg/dL and the glucose levels (Fat/STZ rats; Fat/STZ rat, Gelucire vehicle, 497+/−22 without NDGA, significant lowering) was 380+/−28. For the same molecule, the glucose levels (Fat/STZ rats; Fat/STZ rat, PEG delivery vehicle, 393+/−20 without NDGA, no significant lowering) was 364+/−20, the glucose lowering (Fat/STZ rats; Fat/STZ rats, given orally) was “significantly lowers glucose” and the “free fatty acid (FFA) concentrations” value (Fat/STZ rats; fat-fed/STZ rats) was “decreases free fatty acid (FFA) concentrations”. The plasma triglyceride lowering (Fat/STZ rats; fat-fed/STZ rats) was “significantly and dramatically lowered plasma triglycerides”, the glucose lowering (Fat/STZ rats; fat/STZ rat, single daily dose of 150 mg/kg) was “ineffective in lowering glucose” and the triglyceride lowering (rodent models; CMC, PEG or Gelucire vehicles, doses as low as 10 mg/kg twice per day) was “lowered triglyceride concentrations”. For the same molecule, the triglyceride lowering (rodent models; administered orally just once per day) was “lowered triglycerides”, the insulin concentrations (rodent models; highest dose studied, 350 mg/kg twice daily) was “did not result in increased insulin concentrations” and the glucose lowering (rodent models; once daily administration) was “generally ineffective at lowering glucose concentrations”. The plasma triglyceride lowering (ZDF rats) was “significantly and dramatically lowered plasma triglycerides”, the glucose lowering (ZDF rats; given orally) was “significantly lowers glucose” and the “hourly hepatic glucose production compared to vehicle” value (fat/STZ rat [3]) was “significantly reduced hourly hepatic glucose production”. The glucose transport (rat adipocytes; adipocytes, in vitro) was “directly stimulates glucose transport”, the isoproterenol-induced lipolysis (rat adipocytes; rat adipocytes, in vitro (Gowri et al., 1999)) was “inhibition” and the glucose lowering (Ob/ob mice) was “significantly lowers glucose”. The “solubility in aqueous media / water” value ([4]; aqueous media) was “poorly water-soluble; also recorded: insoluble”, the “solubility in organic solvents” value ([4]; organic solvents such as methanol and ethanol) was “soluble” and the “reduction of steady-state plasma glucose concentration (SSPG) versus vehicle control group” value (fat/STZ rat [5]; p<0.05) was “approximately 30%”. The “reduction of steady-state plasma glucose concentration (SSPG) versus vehicle control group” value (fat/STZ rat [5]; p<0.05, listed as Masoprocol) was 30%.
